The subject of data set [1] is platelet aggregation induced by U 46 619 (human PRP). The experiment in a line: Thrombocyte function in vitro: aggregation by U 46 619 (human PRP). The data set is classed as cell-based. On the procedure:
(§1) 1. Thrombocyte Function In Vitro (Human PRP)
(§2) BM 13 177 (in the text, BM) and Iloprost are tested in their action on thrombocyte aggregation and thrombocyte shape change against stimulants U 46 619 (9,11-dideoxy,9alpha-11alpha-methanoepoxy PGF2alpha, stable TXA2 agonist) and ADP and the IC50 values are determined. Then in several independent tests the action of a combination of the two substances on the aggregation (U 46 619 and ADP) in various concentrations is tested; especially the combination of low dosages and of dosages of the two substances in the range of the IC50 values is tested.
(§3) Platelet aggregation and shape change are measured as light-optical phenomena in stimulated PRP (platelet rich plasma) samples. In this case, the shape change is detected as the density increase of the sample by transition of the discoid rest shape of the platelet into a spherozytic shape with formation of pseudopodlike membrane formations and represented on a recorder. The aggregation is photometrically detected as density […] by clumping and "precipitation" of platelet aggregates and represented on a recorder.

Data set [2] concerns platelet shape change induced by U 46 619 (human PRP). The experiment in a line: Thrombocyte function in vitro: shape change by U 46 619 (human PRP). The data set is classed as cell-based. Particulars: for IC50: human PRP, stimulant U 46 619. As to the method:
as §1, §2, §3
Example 2: Shape change by 50 ng/ml U 46 619

The test system of data set [3] is 2nd wave of aggregation induced by ADP (human PRP). The data set can be described thus: Thrombocyte function in vitro: 2nd wave of aggregation by ADP (human PRP). The data set is classed as cell-based. Particulars: for % Inhibition (2nd wave of aggregation): 0.5×10^-6 M ADP; for IC50: human PRP, stimulant ADP. As to the method:
as §1, §2, §3
Example 3: 2nd wave of aggregation by 0.5×10^-6 M ADP

Data set [4] has as its system intravascular thrombocyte aggregation (collagen-induced thrombocytopenia). The experiment in a line: Intravascular thrombocyte aggregation on anesthetized rats (collagen-induced thrombocytopenia). Type of data set: in vivo. An excerpt: 2. Intravascular Thrombocyte Aggregation on Anesthetized Rats
The influence of the intravascular thrombocyte aggregation is examined on urethane anesthetized rats.
Collagen (100 micrograms/kg i.v. bolus) causes transitory thrombocytopenias (a transient loss of blood platelet concentration), measured by continuous taking of blood from the A. carotis (50 microliter/min) and thrombocyte counting in the Technicon Autocounter. The change of the collagen-induced thrombocytopenia (% of loss) in comparison with the initial value (=2nd collagen injection) serves as a measurement for the inhibition of the intravascular platelet aggregation.

For data set [5], the system named is mesenteric arteriole thrombosis (topical ADP). The experiment in a line: Mesenteric arteriole thrombosis on anesthetized guinea pigs. Type of data set: in vivo. On the procedure:
3. Mesenteric Arteriole Thrombosis on Anesthetized Guinea Pigs
A mesenteric loop for vital microscopy is prepared on anesthetized guinea pigs. After electrical lesion of an arteriole, under controlled conditions and after substance application, ADP is applied topically until finding of a thrombogenic dose (occlusion by platelet thrombus).
Parameters: increasing of the thrombogenic ADP concentration vs. initial value; i.v. infusion of Iloprost, i.v. injection of BM 13 177.

The subject of another data set is jugular vein thrombosis. The data set can be described thus: Jugular vein thrombosis on anesthetized rats. Type of data set: in vivo. On the procedure: 4. Jugular Vein Thrombosis on Anesthetized Rats
By stressing of the jugular vein of rats anesthetized with urethane with a metal punch cooled to -15° C. (200 g, 2 min) the vessel is predamaged. The thrombus grown within 3 hours on this site is quantified (Hb content wet weight) by determinations of its Hb content (difference damaged-undamaged vessel segment).
The infusion of the test substances begins 15 min before damaging the vein and is continued until the end of the test.

The nature of data set [6]: Blood pressure of spontaneously hypertonic (SH) rats. Particulars: Iloprost 0.3 microgram/kg/min (threshold dose), awake SH rats.

From patent publication US5523321A, “Prostacyclins, their analogs or prostaglandins and thromboxane antagonists for treatment of thrombotic and thromboembolic syndromes” (Schering Aktiengeselleschaft, priority 1985, dated 1996) come the findings set out here.

Structures are written as SMILES. Where two headings read alike, the source gives them in different places.

With `O=C(O)COc1ccc(CCNS(=O)(=O)c2ccccc2)cc1` [BM 13 177, 4-[2-(benzenesulfonamido)-ethyl]-phenoxyacetic acid], the IC50 lay in the range of 1650 to 6600 nM in data set [1] (BM 13 177, human PRP, stimulant U 46 619, read-out: IC50 for the aggregation); 1650 to 3300 nM in data set [2] (Platelet, BM 13 177, read-out: IC50 for the shape change); 330 to 660 nM in data set [3] (BM 13 177). For the same molecule, the inhibition at 0.66 µM in data set [1] (Homo sapiens, 0.66 microM BM 13 177, 100 ng/ml U 46 619) was 16%; in data set [2] (Homo sapiens, Platelet, 0.66 microM BM 13 177, 50 ng/ml U 46 619), 28%. Besides, the “% Inhibition (2nd wave of aggregation)” value in data set [3] (0.165 microM BM 13 177) is listed as “no inhibition”. In data set [4] (BM 13 177 0.5 mg/kg/min (lowest dosage), MW±SE), the “inhibition of collagen-induced thrombocytopenia” value is “about 27±6%”. For the same molecule, in data set [4] (BM 13 177 2 mg/kg i.v. infusion), the “platelet inhibition in vivo” value amounted to 27%. Also, the “inhibition of collagen-induced thrombocytopenia on raising the dosage (in words)” value in data set [4] (BM 13 177 1.0-2.0 mg/kg/min) is listed as “cannot be increased by raising the dosage”. Also, the “increase of thrombogenic ADP concentration (factor)” value in data set [5] (BM 13 177 25 mg/kg i.v., significant) was around 4. For the same molecule, the “antithrombotic effect, Hb content of thrombi (in words)” value in the data set on jugular vein thrombosis (BM 13 177 20 mg/kg i.v. bolus + 50 micrograms/kg/min i.v., monotherapy) was “ineffective”. The “antithrombotic effect (in words)” value in the data set on jugular vein thrombosis (BM 13 177 as monotherapy) is “not antithrombotically effective”.

For the molecule `CC#CCC(C)[C@H](O)/C=C/[C@@H]1[C@H]2C/C(=C/CCCC(=O)O)C[C@H]2C[C@H]1O` (stereo partly shown) [Iloprost], in data set [1] (Homo sapiens, 0.1 ng/ml Iloprost, 100 ng/ml U 46 619), the inhibition at 0.0001 µg/mL came to 2%. The IC50 in data set [1] (Iloprost, human PRP, stimulant U 46 619, read-out: IC50 for the aggregation inhibition) is 1.3 to 2.6 nM; in data set [2] (Platelet, Iloprost, read-out: IC50 for the shape change inhibition) it was 0.52 to 1.3 nM; in data set [3] (Iloprost), 0.26 to 0.65 nM. Besides, in data set [2] (0.1 ng/ml Iloprost, 50 ng/ml U 46 619), the “% Inhibition (shape change)” value is on record as “no inhibition”. In addition, the “% Inhibition (2nd wave of aggregation)” value in data set [3] (0.1 ng/ml Iloprost) is “no inhibition”. Besides, the “inhibition of collagen-induced thrombocytopenia (in words)” value in data set [4] (Iloprost 0.1-0.33-1.0 micrograms/kg/min) was “inhibits the collagen-induced thrombocytopenia, depending on the dose”. Besides, the “increase of thrombogenic ADP concentration (factor)” value in data set [5] (Iloprost 0.1 microgram/kg/min i.v. (threshold dose)) is 2.8. In addition, the “antithrombotic effect, Hb content of thrombi (in words)” value in the data set with jugular vein thrombosis (Iloprost 30 ng/kg/min i.v., individual dose) is reported as “not significantly effective”. The “reduction of diastolic blood pressure” value in data set [6] was 20%.

By IC50 is commonly meant the concentration that inhibits the measured activity by half. One may read the inhibition as the change of the read-out against control, counted positive when it falls.
